This assay concerns HEK-Blue IL23 Reporter. As to the kind of experiment: HEK-Blue IL-23 STAT3 Reporter Assay. The assay is classed as cell-based, human. The following applies: SEAP read with QUANTI-Blue at OD655. The method, then:
HEK-Blue IL23 cells (InvivoGen catalog #HKB-IL23) are designed for the detection of bioactive IL-23 by monitoring the activation of the STAT3 pathway. They were generated by stably introducing the genes for the human IL-23 receptor, STAT3, and the SEAP (secreted embryonic alkaline phosphatase) reporter gene into human HEK293 cell line.
Briefly, around 50,000 cells in DMEM medium supplemented with 10% heat inactivated FBS (˜180 ul) were seeded into each well and incubate for 48 hours at 37° C. with 5% CO2 in air. On day 3, one microliter of compound and 20 ul IL-23 were transferred to the assay plate respectively. The plate was left in the 37° C. incubator overnight. Two microliter of cell supernatant was transferred to a 384-well plate, and 18 ul of resuspended QUANTI-Blue solution was added to each well. SLAP levels were determined using Tecan Spark at OD655.
Cells with no IL23 added were used as Low control. Cells stimulated with IL23 were used as High control. Inhibition rate was calculated with the formula of % inhibition=100*(High control−Treated Well)/(High Control−Low control). IL-23 reporter assay inhibition IC50 was calculated with the equation of Y=Bottom+(Top-Bottom)/(1+10^((Log IC50−X)*HillSlope)).
(In general: In a reporter assay the amount or activity of a reporter protein is the signal.)

Where [1] appears, read: HEK-Blue IL23 cells stimulated with IL-23 overnight.
Setting [2] is: Homo sapiens, HEK-Blue IL-23, HEK-Blue IL23 cells stimulated with IL-23 overnight.

Each structure is given as a SMILES string. Some results are limits rather than exact numbers.

One may read the IC50 as the concentration needed to halve the response being measured. Read a low IC50 as inhibition by little substance. With `[2H]C([2H])([2H])NC(=O)c1nnc(NC(=O)N2CCCC2)cc1Nc1nccc2c1S(C)(=O)=NC2` (stereo not shown) [Compound 92], the IC50 under setting [1] is no less than 1000 nM.
Under setting [2], `[2H]C([2H])([2H])NC(=O)c1nnc(NC(=O)C2CC2)cc1Nc1ncc(OCCOC(F)F)cc1S(C)(=O)=O` [Compound 78] yielded an IC50 of 0.8 nM.
`[2H]C([2H])([2H])NC(=O)c1nnc(NC23CC(C2)C3)cc1Nc1ncccc1S(C)(=O)=O` [Compound 20] came in with a half-maximal inhibitory concentration (IC50) under setting [2] of 195 nM.
Regarding `[2H]C([2H])([2H])NC(=O)c1nnc(NC(=O)[C@H]2CC23CC3)cc1Nc1nscc1S(C)(=O)=O` [Compound 103], the half-maximal inhibitory concentration (IC50) under setting [2] is 5.7 nM.
For `[2H]C([2H])([2H])CC(=O)c1nnc(NC(=O)[C@H]2CC23CC3)cc1Nc1ncc(OC)cc1S(C)(=O)=O` [Compound 104], the IC50 under setting [2] worked out at 119 nM.
`[2H]C([2H])([2H])NC(=O)c1nnc(NC(=O)[C@H]2CC23CC3)cc1Nc1ncc(N2CC(F)(F)C2)cc1S(C)(=O)=O` [Compound 124] had a 50% inhibitory concentration (IC50) under setting [2] of 1.9 nM.
In turn, `[2H]C([2H])([2H])NC(=O)c1nnc(NC(=O)C2CC2)cc1Nc1ncc(C(F)F)cc1S(C)(=O)=O` (single isomer, unassigned) [Compound 58] gave an IC50 under setting [2] of 2.7 nM.
Under setting [2], `[2H]C([2H])([2H])NC(=O)c1nnc(NC(=O)C2CC23CC3)cc1Nc1ncccc1S(C)(=N)=O` (stereo not shown) [Compound 7] yielded an IC50 of 14.4 nM.
As to `[2H]C([2H])([2H])NC(=O)c1nnc(NC(=O)C2CCCC2)cc1Nc1nccc2c1S(C)(=O)=NC2` (stereo not shown) [Compound 90], under setting [1], the IC50 stood at 4.2 nM.
Compound `[2H]C([2H])([2H])NC(=O)c1nnc(NC(=O)C2CC2)cc1Nc1ncc(C(F)(F)F)cc1S(C)(=O)=O` [Compound 47] came in with a concentration for half-maximal inhibition (IC50) under setting [2] of 1.4 nM.
Consider `[2H]C([2H])([2H])NC(=O)c1nnc(NC(=O)C2CC2)cc1Nc1nc(C2CC2)sc1S(C)(=O)=O` [Compound 83], for which half-maximal inhibition under setting [2] (IC50) required 7.4 nM.
In turn, `[2H]C([2H])([2H])NC(=O)c1nnc(NC(=O)c2ccn(C)n2)cc1Nc1ncc(OC)cc1S(C)(=O)=O` [Compound 30] came in with an IC50 under setting [2] of 440 nM.
The same measure, in the same setting: the value for `COC(=O)Nc1cc(Nc2ncccc2S(C)(=O)=O)c(C(N)=O)nn1` [Compound 23] was 58.5 nM.
In turn, `[2H]C([2H])([2H])NC(=O)c1nnc(NC(=O)[C@H]2CC23CC3)cc1Nc1nc2c(cc1S(C)(=O)=O)CNCC2` [Compound 40] returned an IC50 under setting [2] of 54.4 nM.
Under setting [2], `[2H]C([2H])([2H])NC(=O)c1nnc(NC(=O)[C@H]2CC23CC3)cc1Nc1ncc(C#N)cc1S(C)(=O)=O` [Compound 126] displayed an IC50 of 17.4 nM.
Still for that read-out and setting: for `[2H]C([2H])([2H])NC(=O)c1nnc(NC(=O)C2CC2)cc1Nc1ncc(OC)cc1S(C)(=O)=O` [Compound 14] the value was 1.3 nM; for `[2H]C([2H])([2H])NC(=O)c1nnc(NC(=O)[C@H]2C[C@H](OC)C2)cc1Nc1ncc(C2CC2)cc1S(C)(=O)=O` [Compound 85], 2.1 nM; for `[2H]C([2H])([2H])NC(=O)c1nnc(NC(=O)C2CC2)cc1Nc1ncc(OC[C@@H](C)OC=O)cc1S(C)(=O)=O` [Compound 76], 2.5 nM.
As to `[2H]C([2H])([2H])NC(=O)c1cnc(NC(=O)C2CC2)cc1Nc1ncc(C2CC2)cc1S(C)(=O)=O` [Compound 77], under setting [2], the IC50 worked out at 1.1 nM.
Under setting [2], `[2H]C([2H])([2H])NC(=O)c1nnc(NC(=O)N2CCC2)cc1Nc1ncc(OC)cc1S(C)(=O)=O` [Compound 89] showed a half-maximal inhibitory concentration (IC50) of 7.9 nM. This IC50 lies about 7.2-fold higher than the previous one.
As to `[2H]C([2H])([2H])NC(=O)c1nnc(NC(=O)C2CC2)cc1Nc1ncc(C)cc1S(C)(=O)=O` [Compound 48], the 50% inhibitory concentration (IC50) under setting [2] is 0.46 nM.
Same read-out and setting: for `[2H]C([2H])([2H])NC(=O)c1nnc(NC(=O)C2CC2)cc1Nc1ncc(OC2COC2)cc1S(C)(=O)=O` [Compound 63] the value was 1.9 nM; for `[2H]C([2H])([2H])NC(=O)c1nnc(NC(=O)NC2CC2)cc1Nc1ncccc1S(C)(=O)=O` [Compound 21], 8.9 nM.
On the same count and under the same terms, the value for `[2H]C([2H])([2H])NC(=O)c1nnc(NC(=O)[C@H]2CC23CC3)cc1Nc1nccc(C2CC2)c1S(C)(=O)=O` [Compound 101] was 11.5 nM.
Same read-out and setting: the value for `[2H]C([2H])([2H])NC(=O)c1nnc(NC(=O)[C@H]2CC23CC3)cc1Nc1ncc(OC[C@@H](C)OC)cc1S(C)(=O)=O` [Compound 113] was 1.2 nM.
As for `[2H]C([2H])([2H])NC(=O)c1nnc(NC(=O)C2CC2)cc1Nc1nccc2c1S(C)(=O)=NC2` (stereo not shown) [Compound 56], half-maximal inhibition under setting [1] (IC50) was put at 0.3 nM.
`[2H]C([2H])([2H])NC(=O)c1nnc(NC(=O)[C@@H]2CC23CC3)cc1Nc1ncc(OCCOC=O)cc1S(C)(=O)=O` [Compound 117] yielded a half-maximal inhibitory concentration (IC50) under setting [2] of 5.7 nM.
Under setting [2], `[2H]C([2H])([2H])NC(=O)c1nnc(NC(=O)[C@H]2CC23CC3)cc1Nc1ncc(O[C@H](C)COC)cc1S(C)(=O)=O` [Compound 115] had a concentration for half-maximal inhibition (IC50) of 3.5 nM.
`[2H]C([2H])([2H])NC(=O)c1nnc(NC(=O)C2CC2)cc1Nc1ncc(C2CC2)cc1S(C)(=O)=O` [Compound 46] came in with an IC50 under setting [2] of 0.2 nM.
As to `[2H]C([2H])([2H])NC(=O)c1nnc(NC(=O)C2CC2)cc1Nc1ncc(F)cc1S(C)(=O)=O` [Compound 45], under setting [2], the IC50 is 1.5 nM.
Under setting [2], `[2H]C([2H])([2H])NC(=O)c1nnc(NC(=O)[C@H]2CC23CC3)cc1Nc1ncc(OC)cc1S(C)(=O)=O` [Compound 26] came in with a half-maximal inhibitory concentration (IC50) of 2.3 nM.
`[2H]C([2H])([2H])NC(=O)c1nnc(NC(=O)[C@H]2[C@@H]3COC[C@@H]32)cc1Nc1ncc(OC)cc1S(C)(=O)=O` [Compound 37] displayed an IC50 under setting [2] of 10.2 nM.
Under setting [2], `[2H]C([2H])([2H])NC(=O)c1nnc(NC(=O)NC2CCC2)cc1Nc1ncc(OC)cc1S(C)(=O)=O` [Compound 88] had a half-inhibitory concentration (IC50) of 0.6 nM.
In the case of `[2H]C([2H])([2H])NC(=O)c1nnc(NC(=O)C(C)C)cc1Nc1ncc(OC)cc1S(C)(=O)=O` [Compound 18], half-maximal inhibition under setting [2] (IC50) was put at 38.9 nM.
`[2H]C([2H])([2H])NC(=O)c1nnc(NC(=O)C2CC23CC3)cc1Nc1nccc2c1S(C)(=O)=NC2` (stereo not shown) [Compound 8] had a half-maximal inhibitory concentration (IC50) under setting [2] of 2.6 nM.
The same measure, in the same setting: the value for `[2H]C([2H])([2H])NC(=O)c1nnc(NC(=O)C2CC2)cc1Nc1ncc(Cl)cc1S(C)(=O)=O` [Compound 52] was 2.5 nM.
`[2H]C([2H])([2H])NC(=O)c1nnc(NC(=O)[C@H]2CC23CC3)cc1Nc1ncccc1S1(=O)=NCCC1` (stereo partly shown) [Compound 95] registered an IC50 under setting [1] of 19.5 nM.
Under setting [2], `[2H]C([2H])([2H])NC(=O)c1nnc(NC(=O)C2CC2)cc1Nc1ncc(OC(F)(F)F)cc1S(C)(=O)=O` (single isomer, unassigned) [Compound 53] displayed an IC50 of 1.9 nM.
`[2H]C([2H])([2H])NC(=O)c1nnc(NC(=O)C2CC2)cc1Nc1ncc(OC[C@@H](C)OC)cc1S(C)(=O)=O` [Compound 68] returned an IC50 under setting [2] of 0.6 nM.
`[2H]C([2H])([2H])NC(=O)c1nnc(NC(=O)C2CC23CC3)cc1Nc1ncc(F)cc1S(C)(=O)=O` (stereo not shown) [Compound 3] came in with an IC50 under setting [2] of 7.1 nM. This IC50 is about 12-fold higher than that of the compound before.
Still for that read-out and setting: for `[2H]C([2H])([2H])NC(=O)c1cnc(NC(=O)[C@@H]2CC23CC3)cc1Nc1ncc(C2CC2)cc1S(C)(=O)=O` [Compound 118] the value was 0.6 nM; for `[2H]C([2H])([2H])NC(=O)c1nnc(NC(=O)C2CCC2)cc1Nc1ncc(OC)cc1S(C)(=O)=O` [Compound 15], 9.1 nM.
`[2H]C([2H])([2H])NC(=O)c1nnc(NC(=O)C2CC2)cc1Nc1nc(C)sc1S(C)(=O)=O` [Compound 71] gave an IC50 under setting [2] of 5.4 nM.

The values above are taken from patent US12492184B2, “Heteroaryl compounds, preparation methods and uses thereof” (InventisBio Co., Ltd., priority 2020, dated 2025).
